# Measurements: article PMC6789111, “Crossing the blood-brain-barrier with nanoligand drug carriers self-assembled from a phage display peptide” (Nature Communications, 2019)
# Peptide text beside a SMILES is read from it. * marks the point of attachment. 5FAM = O=C1OC2(c3ccc(O)cc3Oc3cc(O)ccc32)c2ccc(C(=O)*)cc21
# Assays:
# [1] = test system: hCMEC/D3 cells; test: Cell uptake by flow cytometry; assay type: cell-based, human; conditions: 5 µM, 24 h, 37 °C, flow cytometry (Supplementary Fig. 13)
# Procedure: Peptide internalisation was measured by flow cytometry (FACS ArrayTM Cell Analysis, Becton, Dickinson and Company, NJ, USA). Cells (1 × 10^5 cm^−2) were seeded on 24-well plates and grown 1 day at 37 °C and 5% CO2 in order to reach 60–70% confluence. The cells were washed 3 times with pre-heated PBS. The uptake studies were initiated by adding 500 µL of 5 µM fluorescence-labelled peptides (diluted in cell medium containing with different serum concentration). Serum concentration in incubation varied from 5 to 20% (v/v). […] A total of 10,000 cells were analysed by flow cytometry.
# [2] = test system: hCMEC/D3 cells; test: Trypan Blue exclusion test; assay type: cell-based, human; conditions: after receptor down regulation
# [3] = test system: RAGE; test: RAGE silencing with siPORT Amine, Western blot; assay type: cell-based, human; conditions: 28 nM siRNA with siPORT Amine
# Procedure: (§1) hCMEC/D3 cells were transfected with anti-TfR siRNA [sense sequence ([NT]) and antisense sequence ([NT])] or anti-RAGE siRNA [sense sequence ([NT]) and antisense sequence [NT]] or control siRNA using siPORT Amine transfection agent, according to the manufacturer' Neofection protocol. Briefly, siPORT Amine transfection reagent (7 μL) was added to serum-free cell medium to a final volume of 100 μL and vortexed. […] The mixture was gently mixed and incubated at room temperature for 20 min. The transfection agent/siRNA complex was added to culture plates containing 2.3 × 10^5 hCMEC/D3 cells in 2.3 mL normal growth medium. The final concentration of siRNA was 28 nM. After 24 h incubation, the medium containing transfection agent/siRNA complex was removed and fresh growth medium was added. After 48 h post transfection, the level of target protein (TfR or RAGE) was determined by Western blotting. […] Uptake was quantified by measuring fluorescence using FACS. Transferrin receptor and RAGE expression level in human cells was determined by Western blot analysis. Briefly, cells were seeded in 75 cm^2-flasks and grown to reach 60-70% confluence. The cells were washed in ice-cold PBS three times and then scraped off the flask and collected by centrifugation. The pelleted cells were lysed for 10 min at room temperature on a shaker (900 rpm) following the ProteoJETTM Mammalian Cell Lysis Reagent protocol. Lysates were spun in a centrifuge at 18,000 × g for 15 min and the supernatant was collected. Equal protein aliquots were resolved by SDS-PAGE, transferred to nitrocellulose membranes using iBot Dry Blotting system (Invitrogen, CA, USA), immunoblotted with primary antibodies (mouse anti-human TfR antibody or rabbit polyclonal to mouse and human RAGE) (1;200 and 1:750, respectively) and detected with HRP-Goat-anti-mouse (or rabbit) IgG (H + L) secondary antibody (1:3000). Tubulin was immunoblotted with mouse anti-human-β-tubulin (1:200) and detected with HRP-Goat-anti-mouse IgG (H + L) secondary antibody (1:3000). These were followed by incubation with Novex® ECL Chemiluminescent Substrate Reagent Kit. The Bands were quantified with ImageJ 1.44p (http://imagej.nih.gov/ij/).
# [4] = test system: TfR; test: TfR silencing by peptide/siRNA nano-assemblies, Western blot; assay type: cell-based, human
# Procedure: Transferrin receptor and RAGE expression level in human cells was determined by Western blot analysis. Briefly, cells were seeded in 75 cm^2-flasks and grown to reach 60-70% confluence. The cells were washed in ice-cold PBS three times and then scraped off the flask and collected by centrifugation. The pelleted cells were lysed for 10 min at room temperature on a shaker (900 rpm) following the ProteoJETTM Mammalian Cell Lysis Reagent protocol. Lysates were spun in a centrifuge at 18,000 × g for 15 min and the supernatant was collected. Equal protein aliquots were resolved by SDS-PAGE, transferred to nitrocellulose membranes using iBot Dry Blotting system (Invitrogen, CA, USA), immunoblotted with primary antibodies (mouse anti-human TfR antibody or rabbit polyclonal to mouse and human RAGE) (1;200 and 1:750, respectively) and detected with HRP-Goat-anti-mouse (or rabbit) IgG (H + L) secondary antibody (1:3000). Tubulin was immunoblotted with mouse anti-human-β-tubulin (1:200) and detected with HRP-Goat-anti-mouse IgG (H + L) secondary antibody (1:3000). These were followed by incubation with Novex® ECL Chemiluminescent Substrate Reagent Kit. The Bands were quantified with ImageJ 1.44p (http://imagej.nih.gov/ij/). […] Next, the mixtures were diluted with saline to a final peptide concentration 5 μM for TEM studies. […] After 24 h incubation, the medium was replaced by fresh growth medium. After another 48 h of incubation, the level of the target protein was determined by Western blotting. The results were compared with parallel experiments containing nano-assemblies formed from FAM-CGY and an irrelevant siRNA as well as transfection procedures with complexes formed between siRNA and siPORT Amine transfection agent. Cy3-siRNA uptake was quantified by measuring median cell fluorescence using FACS.
# [5] = test system: TfR; test: TfR silencing with siPORT Amine, Western blot; assay type: cell-based, human; conditions: 28 nM siRNA with siPORT Amine
# Procedure: as §1
# [6] = test system: claudin-5; test: Claudin-5 silencing, Western blot; assay type: cell-based, human; conditions: siRNA delivered with FAM-CGY (5 µM), 72 h after transfection
# Procedure: Peptide/siRNA assemblies were formed by dropwise addition (80–240 nM range) of either Cy3-siRNA or functional anti-TfR siRNA or anti-Claudin-5 siRNA (with the sense and antisense sequences of 5′-[…]tt-3′ and 5′-[…]gc-3′) to 50 µM FAM-CGY in physiological saline and incubated for 30 min. Next, the mixtures were diluted with saline to a final peptide concentration 5 µM for TEM studies. In vitro uptake and silencing experiments were performed in hCMEC/D3 cells. Briefly, peptide/siRNA nano-assemblies (5 µM FAM-CGY and either 8 or 16 or 24 nM functional siRNA, final concentration) were added to 2.3 × 10^5 hCMEC/D3 cells. After 24 h incubation, the medium was replaced by fresh growth medium. After another 48 h of incubation, the level of the target protein was determined by Western blotting. The results were compared with parallel experiments containing nano-assemblies formed from FAM-CGY and an irrelevant siRNA as well as transfection procedures with complexes formed between siRNA and siPORT Amine transfection agent. Cy3-siRNA uptake was quantified by measuring median cell fluorescence using FACS.
# Supplementary Fig. 20. […] FAM-CGY (5 µM final concentration)/CLDN5-specific siRNA assemblies effectively down regulates CLDN5 in hCMEC/D3 cells as determined by Western blotting. […] CLDN5 expression was measured 72 h after transfection. […]
# [7] = test system: Iba-1; test: ELISA of Iba-1 in hippocampus; assay type: in vivo, ICR mice; conditions: 24 h after i.v. (LPS 24 h); Ave.
# [8] = Blood count after intravenous injection; assay type: in vivo, ICR mice; conditions: mean ± s.d., n = 3
# Description: Supplementary Table 2. Blood count following intravenous injection of FAM-CGY NLCs in free form and complexed with siRNA
# Samples WBC RBC HGB HCT MCV MCH MCHC PLT
# WBC: white blood cell; RBC: red blood cell count; HGB: haemoglobin; HCT: haematocrit; MCV: mean corpuscular volume; MCH: mean corpuscular haemoglobin; MCHC: mean corpuscular
# significance (*p < 0.05). The results are mean ± s.d. (n = 3 animals per group). The experiment was repeated twice with identical results. The siRNA represent BACE-1-specific siRNA. The
# final concentration of the peptide conjugate was 10 µM and that of siRNA was 48 nM, based on blood volume calculation equivalent to 6% of the body weight. LPS = lipopolysaccharide.
# [9] = test system: IL-1β; test: ELISA of IL-1β in hippocampus; assay type: in vivo, ICR mice; conditions: 24 h after i.v. (LPS 24 h); Ave.
# [10] = test system: GFAP; test: ELISA of GFAP in hippocampus; assay type: in vivo, ICR mice; conditions: 24 h after i.v. (LPS 24 h); Ave.
# [11] = test system: IL-6; test: ELISA of IL-6 in hippocampus; assay type: in vivo, ICR mice; conditions: 24 h after i.v. (LPS 24 h); Ave.
# Procedure: After 4, 24 and 72 h post injection, mice were sacrificed and perfused with 10 mL 0.9% (w/v) saline at a rate of 2 mL min^−1.
# Hippocampus was dissected out, rinsed in ice-cold PBS thoroughly, weighted and immediately frozen in liquid nitrogen. Tissues were cut into small pieces and homogenized in 1 mL ice-cold PBS with a glass homogeniser and sonicated with an ultrasonic cell disrupter to break the cell membranes. Homogenates were centrifuges for 5 min at 5,000 × g and supernatants were assayed immediately for quantitative determination of TNF-α, IL-6, IL-1β, Iba-1 and GFAP by corresponding ELISA kits, respectively in accordance with manufacturer’s instructions.
# [12] = hCMEC/D3, control siRNA = 100.00, replicate 1
compound,measurement,setting,value
CC[C@H](C)[C@H](NC(=O)[C@H](CC(N)=O)NC(=O)[C@H](Cc1c[nH]cn1)NC(=O)[C@@H](NC(=O)[C@@H]1CCCN1C(=O)[C@H](CCCNC(=N)N)NC(=O)[C@H](Cc1ccc(O)cc1)NC(=O)CNC(=O)c1ccc2c(c1)C(=O)OC21c2ccc(O)cc2Oc2cc(O)ccc21)C(C)C)C(=O)N[C@@H](CCCNC(=N)N)C(=O)NCC(=O)N[C@@H](Cc1c[nH]cn1)C(=O)N[C@@H](Cc1c[nH]c2ccccc12)C(=O)N[C@@H](C)C(=O)N1CCC[C@H]1C(=O)NCC(=O)O [FAM-GYR] (5FAM-GYRPVHNIRGHWAPG-OH),cellular uptake in contrast to FAM-CGY,[1],relatively low
"RAGE siRNA: sense 5′-GGUGGAACCGUAACCUGAtt-3′, antisense 5′-UCAGGGUUACGGUUCCACCag-3′ (sense GGUGGAACCGUAACCUGATT; antisense UCAGGGUUACGGUUCCACCAG; chemistry not given here)",cell viability,[2],> 95%
same,RAGE expression level (%),[3]; [12],54.86%
same,RAGE expression level (%),[3]; Ave.,53.86%
same,RAGE expression level (%),[3]; replicate 2,57.89%
same,RAGE expression level (%),[3]; replicate 3,48.82%
"TfR siRNA: sense 5′-GGUCAUCAGGAUUGCCUAAtt-3′, antisense 5′-UUAGGCAAUCCUGAUGACCga-3′ (sense GGUCAUCAGGAUUGCCUAATT; antisense UUAGGCAAUCCUGAUGACCGA; chemistry not given here)",TfR expression leve (% of control),"[4]; 8 nM siRNA, presumably complexed with 5 µM FAM-CGY, hCMEC/D3, 24 h + 48 h, replicate 1",75.56%
same,TfR expression leve (% of control),"[4]; 8 nM siRNA, Ave.",70.89%
same,TfR expression leve (% of control),"[4]; 8 nM siRNA, replicate 2",65.03%
same,TfR expression leve (% of control),"[4]; 8 nM siRNA, replicate 3",72.08%
same,TfR expression leve (% of control),"[4]; 16 nM siRNA, Ave.",54.45%
same,TfR expression leve (% of control),"[4]; 24 nM siRNA, presumably siRNA alone, Ave.",90.00%
same,TfR expression leve (% of control),"[4]; 24 nM siRNA, presumably with siPORT, Ave.",38.58%
same,cell viability,[2],> 95%
same,TfR expression level (%),[5]; [12],30.26%
same,TfR expression level (%),[5]; Ave.,34.58%
same,TfR expression level (%),[5]; replicate 2,32.56%
same,TfR expression level (%),[5]; replicate 3,40.91%
"claudin-5-specific siRNA: sense 5′-CCUUAACAGACGGAAUGAAtt-3′, antisense 5′-UUCAUUCCGUCUGUUAAGGgc-3′ (sense CCUUAACAGACGGAAUGAATT; antisense UUCAUUCCGUCUGUUAAGGGC; chemistry not given here)",claudin-5 expression,[6],downregulation of claudin-5
lipopolysaccharide from Escherichia coli O55:B5 [LPS],Iba-1 in hippocampus (Figure 6h),[7],1.68
same,WBC,[8]; 24 h after i.v. (LPS 200 μg kg−1),1.49±0.26 (×109)L-1
same,HCT,[8]; 24 h after i.v.,71.90±6.10%
same,HGB,[8]; 24 h after i.v.,152.25±14.25 gL-1
same,MCH,[8]; 24 h after i.v.,17.45 ± 0.45 pg
same,MCHC,[8]; 24 h after i.v.,211.75±2.63 gL-1
same,MCV,[8]; 24 h after i.v.,82.78 ± 1.23 fL
same,PLT,[8]; 24 h after i.v.,282.45±28.83 (×109)L-1
same,RBC,[8]; 24 h after i.v.,8.72±0.61 (×1012)L-1
same,IL-1β in hippocampus (Figure 6g),[9],36.79
same,GFAP in hippocampus (Figure 6i),[10],289.26
same,IL-6 in hippocampus (Figure 6f),[11],9.69
